Test results taken from ChEMBL document CHEMBL4483862, “Open-source discovery of chemical leads for next-generation chemoprotective antimalarials” (2018).

Tested on: Plasmodium berghei
Experiment: Luciferase/luciferin-expressing antifolate-resistant parasites were used to infect a culture of HepG2 cells that were pre-incubated with compounds. Infected hepatocytes emit light due to the luciferase reaction. Assay results are presented as the percent inhibition of light emission compared to control. […]
Type: functional
Details: sporozoite; for IC90: read-out: LUCIFERASE INFECTION ASSAY - IC90
[1] = read-out: LUCIFERASE INFECTION ASSAY - IC50

Structure (SMILES): Cc1cccc2sc(N(Cc3ccccc3)C(=O)CN3CCN(CC(=O)N4CCCC4)CC3)nc12
- IC50 (PBLUC_HILL_SLOPE 173, PBLUC_R_SQUARED 0.447, read-out: LUCIFERASE INFECTION ASSAY - IC50): 6.63 µM
- IC90: 6.71 µM

Structure (SMILES): O=C(CC12CC3CC(CC(C3)C1)C2)NN=CC1C(=O)N(Cc2ccccc2)C(=O)c2ccccc21 (stereo unspecified)
- IC50 [1]: > 10 µM
- IC90: > 10 µM

Structure (SMILES): Cc1oc2c(c1C(=O)N1CCN(CCO)CC1)C(=O)c1ccccc1C2=O
- IC50 (HEPG2TOX_HILL_SLOPE 0.333, HEPG2TOX_R_SQUARED 0.261, PBLUC_HILL_SLOPE 0.243, PBLUC_R_SQUARED 0.141, read-out: LUCIFERASE INFECTION ASSAY - IC50): 8.15 µM
- IC90: > 10 µM

Structure (SMILES): O=C(Cc1cc(Br)sc1Br)Nc1cccc(C(F)(F)F)c1
- IC50 [1]: > 7.45 µM
- IC90: > 7.45 µM

Structure (SMILES): Clc1ccc(-c2csc3ncnc(NCc4ccco4)c23)cc1
- IC50 [1]: > 10 µM
- IC90: > 10 µM

Structure (SMILES): COc1ccccc1NS(=O)(=O)c1ccc2oc(Nc3ccc(Cl)c(C(F)(F)F)c3)nc2c1
- IC50 [1]: > 10 µM
- IC90: > 10 µM

Structure (SMILES): Cc1ccc(C(=O)C(C)Oc2ccc(NC(=O)c3cccs3)cc2)cc1 (stereo unspecified)
- IC50 (PBLUC_HILL_SLOPE 1.89, PBLUC_R_SQUARED 0.795, read-out: LUCIFERASE INFECTION ASSAY - IC50): 0.461 µM
- IC90: 1.47 µM

Structure (SMILES): CCN(C(=O)c1ccccc1Br)c1nc2c(C)cccc2s1
- IC50 [1]: > 10 µM
- IC90: > 10 µM

Structure (SMILES): COc1ccc(S(=O)(=O)N(CC(=O)c2cc(C)n(-c3ccc(Cl)cc3)c2C)Cc2ccccc2)cc1
- IC50 [1]: > 10 µM
- IC90: > 10 µM

Structure (SMILES): Fc1cccc(NC(=S)NC2CCCCCCCCCCC2)c1
- IC50 (HEPG2TOX_HILL_SLOPE 19.2, HEPG2TOX_R_SQUARED 0.924, PBLUC_HILL_SLOPE 9.11, PBLUC_R_SQUARED 0.436, read-out: LUCIFERASE INFECTION ASSAY - IC50): 3.53 µM
- IC90: 4.49 µM

Structure (SMILES): CCOc1ccc(OCC)c(NC(=O)/C=C/c2c(C)nn(-c3ccccc3)c2C)c1
- IC50 [1]: 9.19 µM
- IC90: > 10 µM

Structure (SMILES): OC(c1cccc(C(F)(F)F)c1)c1nnc(Nc2ccccc2)s1 (stereo unspecified)
- IC50 (PBLUC_HILL_SLOPE 2.28, PBLUC_R_SQUARED 0.325, read-out: LUCIFERASE INFECTION ASSAY - IC50): 7.1 µM
- IC90: > 10 µM

Structure (SMILES): O=C(CSc1ncc(C(F)(F)F)cc1C(F)(F)F)Nc1cc(Cl)cc(Cl)c1
- IC50 (HEPG2TOX_HILL_SLOPE 12.1, HEPG2TOX_R_SQUARED 0.84, PBLUC_HILL_SLOPE 0.731, PBLUC_R_SQUARED 0.558, read-out: LUCIFERASE INFECTION ASSAY - IC50): 1.53 µM
- IC90: > 7.35 µM

Structure (SMILES): N=C(Nc1cc(Cl)cc(Cl)c1)Nc1ncc(C(=O)c2ccccc2O)cn1
- IC50 (PBLUC_HILL_SLOPE 2.46, PBLUC_R_SQUARED 0.348, read-out: LUCIFERASE INFECTION ASSAY - IC50): 5.29 µM
- IC90: > 10 µM

Structure (SMILES): CCOc1ccc(S(=O)(=O)Nc2ccccc2C(=O)Nc2nnc[nH]2)cc1
- IC50 [1]: > 10 µM
- IC90: > 10 µM

Structure (SMILES): O=C1C(=O)N(Cc2ccc(Cl)cc2)c2c1cccc2C(F)(F)F
- IC50 (FFLUC_HILL_SLOPE 2.39, FFLUC_R_SQUARED 0.89, HEPG2TOX_HILL_SLOPE 3.88, HEPG2TOX_R_SQUARED 0.975, PBLUC_HILL_SLOPE 2.88, PBLUC_R_SQUARED 0.708, read-out: LUCIFERASE INFECTION ASSAY - IC50): 1.58 µM
- IC90: 3.39 µM

Structure (SMILES): CN(CC(=O)Nc1ccc(-c2nc3ccccc3[nH]2)cc1)S(=O)(=O)c1ccc(Cl)s1
- IC50 (HEPG2TOX_HILL_SLOPE 1.06, HEPG2TOX_R_SQUARED 0.764, PBLUC_HILL_SLOPE 1.55, PBLUC_R_SQUARED 0.165, read-out: LUCIFERASE INFECTION ASSAY - IC50): > 10 µM
- IC90: > 10 µM

Structure (SMILES): CC(C)(C)C1CCC2(CC1)NC(=O)N(CC(=O)OCC(=O)N1CCN(Cc3ccccc3)C1=O)C2=O (stereo unspecified)
- IC50 [1]: > 10 µM
- IC90: > 10 µM

Structure (SMILES): CC(C)(C)c1ccc(CN2C(=O)CS/C2=C\C(=O)c2ccc(C(C)(C)C)cc2)cc1
- IC50 (FFLUC_HILL_SLOPE 1.26, FFLUC_R_SQUARED 0.691, PBLUC_HILL_SLOPE 1.17, PBLUC_R_SQUARED 0.615, read-out: LUCIFERASE INFECTION ASSAY - IC50): 1.59 µM
- IC90: > 10 µM

Structure (SMILES): CN(C)S(=O)(=O)c1cccc(C(=O)Nc2nc3ccc(Oc4ccccc4)cc3s2)c1
- IC50 (HEPG2TOX_HILL_SLOPE 15.9, HEPG2TOX_R_SQUARED 0.649, PBLUC_HILL_SLOPE 3.03, PBLUC_R_SQUARED 0.302, read-out: LUCIFERASE INFECTION ASSAY - IC50): 5.87 µM
- IC90: > 10 µM

Structure (SMILES): O=C(CSCCc1nc(-c2ccc(Cl)cc2)cs1)N/N=C/c1ccccc1
- IC50 (PBLUC_HILL_SLOPE 13.2, PBLUC_R_SQUARED 0.406, read-out: LUCIFERASE INFECTION ASSAY - IC50): 2.9 µM
- IC90: 3.43 µM

Structure (SMILES): COc1cccc(NC(=O)c2cccc(C3(CNc4cccc(OC(F)(F)F)c4)CC3)c2)c1
- IC50 (PBLUC_HILL_SLOPE 3.47, PBLUC_R_SQUARED 0.3, read-out: LUCIFERASE INFECTION ASSAY - IC50): 9.2 µM
- IC90: > 10 µM

Structure (SMILES): CC(C)c1noc(COC(=O)c2ccc(-c3ccc(O)cc3)cc2)n1
- IC50 [1]: > 10 µM
- IC90: > 10 µM

Structure (SMILES): CCOc1ccc(/C=C2\CCCC3C2=NN(C(=O)C2(S(=O)(=O)c4ccccc4)CC2)C3c2ccc(OCC)cc2)cc1 (stereo unspecified)
- IC50 [1]: 5.63 µM
- IC90: > 10 µM

Structure (SMILES): CC(C)c1nc(N2CCN(C)CC2)c(C#N)c2c1CCCC2
- IC50 (FFLUC_HILL_SLOPE 0.534, FFLUC_R_SQUARED 0.16, read-out: LUCIFERASE INFECTION ASSAY - IC50): > 11.1 µM
- IC90: > 11.1 µM

Structure (SMILES): CC1=NC(C)=C(C#N)C(c2cc(Br)ccc2OC(F)F)C1C#N (stereo unspecified)
- IC50 (HEPG2TOX_HILL_SLOPE 2.06, HEPG2TOX_R_SQUARED 0.906, PBLUC_HILL_SLOPE 11.5, PBLUC_R_SQUARED 0.189, read-out: LUCIFERASE INFECTION ASSAY - IC50): 3.51 µM
- IC90: 4.24 µM

Structure (SMILES): Cc1ccc(C(=O)C(c2ccc(C)cc2)N2C(=O)NC(C)(c3ccccc3)C2=O)cc1 (stereo unspecified)
- IC50 (FFLUC_HILL_SLOPE 10.4, FFLUC_R_SQUARED 0.468, read-out: LUCIFERASE INFECTION ASSAY - IC50): > 10 µM
- IC90: > 10 µM

Structure (SMILES): Cc1nn(C)c(Cl)c1C=C(C(=O)NCCc1ccccc1)C(=O)NCCc1ccccc1
- IC50 [1]: > 10 µM
- IC90: > 10 µM

Structure (SMILES): CNc1ccccc1C(C)(C)c1cc(-c2ccc(C(C)C)cc2)n[nH]1
- IC50 (HEPG2TOX_HILL_SLOPE 0.485, HEPG2TOX_R_SQUARED 0.452, PBLUC_HILL_SLOPE 15.6, PBLUC_R_SQUARED 0.572, read-out: LUCIFERASE INFECTION ASSAY - IC50): 8.84 µM
- IC90: > 10 µM

Structure (SMILES): O=C(NC1CC1)c1ccc(-c2cnc3cnc(-c4ccccc4Cl)cn23)cc1
- IC50 (HEPG2TOX_HILL_SLOPE 2.06, HEPG2TOX_R_SQUARED 0.921, PBLUC_HILL_SLOPE 2.15, PBLUC_R_SQUARED 0.563, read-out: LUCIFERASE INFECTION ASSAY - IC50): 4.01 µM
- IC90: > 8.49 µM

Structure (SMILES): OC1(c2ccccc2)c2ccccc2-c2ccccc21
- IC50 [1]: 7.15 µM
- IC90: > 12.8 µM

Structure (SMILES): Cc1ccc(-c2csc3[nH]c(CNC(C)c4ccc5c(c4)CCCC5)nc(=O)c23)s1 (stereo unspecified)
- IC50 (FFLUC_HILL_SLOPE 13.5, FFLUC_R_SQUARED 0.414, HEPG2TOX_HILL_SLOPE 0.395, HEPG2TOX_R_SQUARED 0.365, read-out: LUCIFERASE INFECTION ASSAY - IC50): > 10 µM
- IC90: > 10 µM

Structure (SMILES): COC(=O)C1=CC2C3C(=O)N(c4cc(Cl)cc(Cl)c4)C(=O)C3C1C1C(=O)N(c3cc(Cl)cc(Cl)c3)C(=O)C21 (stereo unspecified)
- IC50 (PBLUC_HILL_SLOPE 1.53, PBLUC_R_SQUARED 0.573, read-out: LUCIFERASE INFECTION ASSAY - IC50): 2.18 µM
- IC90: > 5.55 µM

Structure (SMILES): COc1cc(-c2cc(C(=O)N/N=C3/C(=O)N(CC(C)C)c4ccccc43)c3ccccc3n2)cc(OC)c1OC
- IC50 [1]: > 10 µM
- IC90: > 10 µM

Structure (SMILES): CC(C)(C)C(=O)/C=c1\[nH]c(=O)/c(=C\c2ccc(-c3ccc(S(=O)(=O)N4CCOCC4)cc3)o2)s1
- IC50 (FFLUC_HILL_SLOPE 2, FFLUC_R_SQUARED 0.892, read-out: LUCIFERASE INFECTION ASSAY - IC50): > 10 µM
- IC90: > 10 µM

Structure (SMILES): COc1cc(Nc2ccn3ncc(-c4ccc(N)cc4)c3n2)cc(OC)c1OC
- IC50 (HEPG2TOX_HILL_SLOPE 3.9, HEPG2TOX_R_SQUARED 0.655, PBLUC_HILL_SLOPE 12, PBLUC_R_SQUARED 0.445, read-out: LUCIFERASE INFECTION ASSAY - IC50): 3.19 µM
- IC90: 3.83 µM

Structure (SMILES): CCc1nn2c(NCc3cccnc3)cc(C)nc2c1-c1ccccc1
- IC50 (PBLUC_HILL_SLOPE 2.62, PBLUC_R_SQUARED 0.301, read-out: LUCIFERASE INFECTION ASSAY - IC50): 7.32 µM
- IC90: > 9.61 µM

Structure (SMILES): CCOc1ccccc1NC(=O)C(c1ccccc1)N1CCC(n2c(=O)[nH]c3ccccc32)CC1 (stereo unspecified)
- IC50 [1]: 5.29 µM
- IC90: > 10 µM

Structure (SMILES): O=S(=O)(c1ccc(Br)s1)N1CCC(C(c2ccccc2)c2ccccc2)CC1
- IC50 [1]: > 6.93 µM
- IC90: > 6.93 µM

Structure (SMILES): O=C(COc1ccc([N+](=O)[O-])c2cccnc12)Nc1ccc(C(F)(F)F)cc1
- IC50 (FFLUC_HILL_SLOPE 10, FFLUC_R_SQUARED 0.0627, PBLUC_HILL_SLOPE 68.1, PBLUC_R_SQUARED 0.146, read-out: LUCIFERASE INFECTION ASSAY - IC50): 9.89 µM
- IC90: > 10 µM

Structure (SMILES): Cc1c(C)c(C)c(C(=O)C2CCN(C(=O)c3ccc([N+](=O)[O-])o3)CC2)c(C)c1C
- IC50 (FFLUC_HILL_SLOPE 1.26, FFLUC_R_SQUARED 0.398, read-out: LUCIFERASE INFECTION ASSAY - IC50): > 8.28 µM
- IC90: > 8.28 µM

Structure (SMILES): O=C(N/N=C/c1ccc([N+](=O)[O-])o1)c1ccc(CN2C(=O)c3cccc4cccc2c34)cc1
- IC50 [1]: > 10 µM
- IC90: > 10 µM

Structure (SMILES): CC(C)CCNC(=O)C(=Cc1ccc(Oc2ccc(C(C)(C)C)cc2)c([N+](=O)[O-])c1)C(=O)NCCC(C)C
- IC50 (FFLUC_HILL_SLOPE 15.8, FFLUC_R_SQUARED 0.198, HEPG2TOX_HILL_SLOPE 15.2, 3.81, HEPG2TOX_R_SQUARED 0.607, 0.996, PBLUC_HILL_SLOPE 2.43, PBLUC_R_SQUARED 0.694, read-out: LUCIFERASE INFECTION ASSAY - IC50): 4.43 µM
- IC90: > 10 µM
